Laboratory results reported in the supplement of paper PMC5844555.

Assays:
Experiment in all cases: 3' UTR reporter interaction score (median-centred robust z-score of log2 firefly/Renilla activity); higher = less repression of the 3' UTR reporter
Conditions in all cases: HEK293T; 48 h
NOTCH1 = tested on: NOTCH1
In short: (§1)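 For the interaction score, the firefly/Renilla ratio was log-transformed, expressed as a robust z-score per plate using median and median absolute deviation, and median-centred per miRNA; a more negative score indicates interaction. These scores come from at least two independent screens, averaged. Each screen used HEK293T cells at 10,000/well in 96-well plates, co-transfected with DharmaFECT Duo carrying 100 ng luc2P 3' UTR reporter, 20 ng pRL-TK and 2.5 pmol miRNA mimic, with luciferase read at 48 h.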

EZH2 = tested on: EZH2
In short: as §1

HRAS = tested on: HRAS
In short: as §1

MYCN = tested on: MYCN
In short: as §1

RB1 = tested on: RB1
In short: as §1

MYB = tested on: MYB
In short: as §1

BRCA2 = tested on: BRCA2
In short: as §1

MYC = tested on: MYC
In short: as §1

ZEB2 = tested on: ZEB2
In short: as §1

PHF6 = tested on: PHF6
In short: as §1

PHOX2B = tested on: PHOX2B
In short: as §1

MYT1L = tested on: MYT1L
In short: as §1

TP53 = tested on: TP53
In short: as §1

FBXW7 = tested on: FBXW7
In short: as §1

Sequence	3' UTR reporter interaction score (NOTCH1)	3' UTR reporter interaction score (EZH2)	3' UTR reporter interaction score (HRAS)	3' UTR reporter interaction score (MYCN)	3' UTR reporter interaction score (RB1)	3' UTR reporter interaction score (MYB)	3' UTR reporter interaction score (BRCA2)	3' UTR reporter interaction score (MYC)	3' UTR reporter interaction score (ZEB2)	3' UTR reporter interaction score (PHF6)	3' UTR reporter interaction score (PHOX2B)	3' UTR reporter interaction score (MYT1L)	3' UTR reporter interaction score (TP53)	3' UTR reporter interaction score (FBXW7)
AACAGGUGACUGGUUAGACAA	1.15	0.144	0.125	-1.32	-0.637	-0.0471	-0.352	-1.37	-0.428	-0.792	2.14	-0.793	-0.34	1.13
UAUUGCACUUGUCCCGGCCUG	-0.177	-0.214	0.114	1.23	1.41	-1.54	1.75	0.754	-2.03	0.0608	0.517	-1.81	0.235	-2.99
AGGAGGCAGCGCUCUCAGGAC	-2.44	-1.61	-0.534	0.868	0.463	0.571	-0.741	-1.13	2.03	1.36	0.109	2.05	-0.457	-0.582
CAUCUUACCGGACAGUGCUGGA	0.335	0.0963	0.319	-0.576	-0.297	-1.55	0.868	-0.0291	-2.11	0.881	0.65	-0.174	-0.701	-0.296
UAGGUAGUUUCAUGUUGUUGG	-0.0228	-1.54	-0.663	-1.16	0.553	-1.52	0.216	-1.91	0.231	-0.281	1.68	1.55	0.576	1.58
GUGGCUGCACUCACUUCCUUC	0.486	0.166	-0.434	1.8	1.44	0.056	-1.87	0.00108	-0.491	1.53	-0.165	1.48	-1.37	0.899
CUGGACUUAGGGUCAGAAGGCC	-1.28	-0.857	0.067	0.447	1.37	1.31	-1.05	-0.781	2.31	0.77	1.18	0.968	-0.836	-0.885
AUGUAUGUGUGCAUGUGCAUG	-0.54	1.67	0.472	0.324	-1.83	-0.0409	-0.994	-1.3	-0.0851	-1.08	-0.089	-0.904	0.0318	0.682
UUUAGGAUAAGCUUGACUUUUG	-0.42	0.299	-0.108	-0.873	-0.349	0.0477	0.711	-0.602	-2.69	-0.597	-0.958	0.523	0.0255	1.12
